This experiment deals with HGADFN167 Lmna^G608G/G608G fibroblasts. The experiment can be described thus: Transmission electron microscopy of mitochondria. It is filed as cell-based, human. To be noted: HGADFN167, 5 µM, 20 days. Here is the method: Supporting Figure S6. Basal respiration and electronic microscopy analysis of mitochondria in wild type and HGPS cells. (A) PROTAC 2 increases basal respiration (OCR, oxygen consumption rate) in human progeroid cells. Bar graphs show mean±sem of 2 independent experiments performed in duplicate. HGADFN167 LmnaG608G/G608G (progeroid) and HGADFN168 Lmna+/+ (wild type) fibroblasts, provided by the Progeria Research Foundation, were incubated with vehicle or 2 (5 µM) for 20 days. *, p<0.05 vs G608G cells, one-way ANOVA. […]
Mitochondria were evaluated for the integrity of the membrane, matrix and cristae, and were classified as mitochondria with normal morphology (black arrows) or damaged mitochondria (red arrows, with alterations in the membrane, presence of inclusions in the matrix and concentric cristae or “onion-like” mitochondria). […]
Cells were harvested by trypsin, centrifuged and washed with PBS. […] The mixture was then allowed to incubate for 30min at 37 °C in the dark and samples were finally analysed by FACScalibur (Becton Dickinson) flow cytometer […]
Cells were incubated for 1 h in 1% OsO4 at room temperature and then thoroughly washed with milliQ water. […] The samples were analysed and examined in the transmission electron microscope JEM 1010 at 80 […]

Here are results for one compound from article PMC13252604, “First Generation Proteolysis Targeting Chimeras (PROTACs) for the Treatment of Progeria” (Advanced Science, 2026).

Turning to `CC1(C)Oc2cc3oc(=O)ccc3cc2C[C@@H]1OC(=O)CCCCCNc1cccc2c1C(=O)N(C1CCC(=O)NC1=O)C2=O` (stereo partly shown) [compound 2], the “number of healthy mitochondria (electron microscopy)” value is on record as “enhances”.
